Earlier results on 2 compounds are cited in patent US20060211664A1, “Method for treating erectile dysfunction and increasing libido in men” (priority 2002, published 2006).

Where a name gives a salt, the structure may show the parent alone.

The subject of series [1] is isolated human corpus cavernosum.
Series [2] concerns sex hormone binding globulin (SHBG) and albumin. The following applies: blood.
The target of series [3] is sex hormone binding globulin (SHBG) and albumin (Homo sapiens, UniProt P02768). As to conditions: in men.
Chain of sex hormone binding globulin (SHBG) and albumin (Homo sapiens, UniProt P02768) (P02768 25-609): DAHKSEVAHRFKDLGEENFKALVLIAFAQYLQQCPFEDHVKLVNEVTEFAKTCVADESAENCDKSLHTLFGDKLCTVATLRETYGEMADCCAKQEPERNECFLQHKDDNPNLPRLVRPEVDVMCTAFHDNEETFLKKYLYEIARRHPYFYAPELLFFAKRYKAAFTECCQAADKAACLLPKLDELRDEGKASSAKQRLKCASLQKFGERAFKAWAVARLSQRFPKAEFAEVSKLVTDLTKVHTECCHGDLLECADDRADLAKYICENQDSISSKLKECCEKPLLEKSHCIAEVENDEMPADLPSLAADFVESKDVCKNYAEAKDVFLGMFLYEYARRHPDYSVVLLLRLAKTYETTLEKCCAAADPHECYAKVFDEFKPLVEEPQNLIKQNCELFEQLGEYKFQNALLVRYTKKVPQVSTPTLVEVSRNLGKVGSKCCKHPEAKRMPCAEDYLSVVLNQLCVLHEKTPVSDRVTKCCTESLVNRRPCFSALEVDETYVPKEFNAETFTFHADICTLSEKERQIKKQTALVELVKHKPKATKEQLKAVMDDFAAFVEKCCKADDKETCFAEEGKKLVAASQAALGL
Series [4] addresses T1, sex hormone binding globulin (SHBG) and albumin (Homo sapiens, UniProt P04278).
T1 sequence (P04278 30-402): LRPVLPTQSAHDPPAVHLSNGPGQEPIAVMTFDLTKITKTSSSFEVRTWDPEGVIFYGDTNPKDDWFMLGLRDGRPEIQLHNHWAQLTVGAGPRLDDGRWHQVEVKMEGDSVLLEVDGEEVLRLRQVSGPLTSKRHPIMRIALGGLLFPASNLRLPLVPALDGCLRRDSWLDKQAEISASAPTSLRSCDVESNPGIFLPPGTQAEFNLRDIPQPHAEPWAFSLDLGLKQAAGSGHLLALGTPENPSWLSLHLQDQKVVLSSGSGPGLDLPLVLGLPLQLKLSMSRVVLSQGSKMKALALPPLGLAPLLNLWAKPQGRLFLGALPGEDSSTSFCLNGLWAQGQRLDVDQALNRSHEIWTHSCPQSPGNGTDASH
As to conditions: in men, high-affinity.

Consider `CCCc1nn(C)c2c(=O)[nH]c(-c3cc(S(=O)(=O)N4CCN(C)CC4)ccc3OCC)nc12` [VIAGRA®, sildenafil citrate USP], for which the “direct relaxant effect on isolated human corpus cavernosum” value in series [1] is “no direct relaxant effect”.

On to `C[C@]12CC[C@H]3[C@@H](CCC4=CC(=O)CC[C@@]43C)[C@@H]1CC[C@@H]2O` [Testosterone, testosterone], for which the “testosterone in the blood bound to protein” value in series [2] was 98%. The “share of the binding bound weakly to albumin” value in series [3] is listed as 60%. Further, the “share of the binding to sex hormone binding globulin (SHBG)” value in series [4] is given as “approximately 40%”.
